These results are taken from patent US20120083861A1, “SELECTIVE ACTIVATION OF NEURONS BY SINUSOIDAL ELECTRIC STIMULATION” (THE GENERAL HOSPITAL CORPORATION, priority 2010, published 2012).

“Also recorded” adds a separate entry of the source.

This experiment deals with retinal ganglion cells. The experiment in a line: Ganglion cell spiking response to electric stimulation near the soma with synaptic transmission blocked pharmacologically (cell-attached patch clamp, isolated retina). Conditions: for maximum number of elicited spikes in control versus with synaptic blocker: 1 sec, plot control (x) vs blocker (y), FIG. 5c, 5d; for response to 10-Hz stimulation (spikes elicited): 10 Hz sinusoidal stimulus near soma; for stimulus threshold in blocker relative to control / effect of the blockers on stimulus threshold: 50 μM CNQX or 100 μM CdCl2, paired t-test; for response to 25-Hz stimulation (spikes elicited): 25 Hz sinusoidal stimulus near soma; for synaptically mediated response of ganglion cells to stimulation: stimulation at 5-25 Hz. The experiment is classed as cell-based, rabbit. The method, then: The present invention provides for responses to LFSS that are synaptic in origin. To determine whether presynaptic activation played a significant role in the high sensitivity of the soma region to LFSS, the response to stimulation near the soma was measured while synaptic transmission was blocked pharmacologically. The primary source of excitatory input to ganglion cells arises via glutamatergic release from the axon terminals of bipolar cells and is mediated through AMPA/kainate receptors on the ganglion cell dendrites.
The care and use of animals followed all federal and institutional guidelines, and all protocols were approved by the Institutional Animal Care and Use Committees of the Boston VA Healthcare System and/or the Subcommittee of Research Animal Care of the Massachusetts General Hospital. New Zealand White Rabbits (˜2.5 kg) were anesthetized with injections of xylazine/ketamine and subsequently euthanized with an intracardial injection of pentobarbital sodium. Immediately after death, the eyes were removed. All procedures following eye removal were performed under dim red illumination. The front of the eye was removed, the vitreous was eliminated. The retina was separated from the retinal pigment epithelium and mounted, photoreceptor side down, to a 10-mm square piece of Millipore filter paper (0.45 μm HA Membrane Filter) that was mounted with vacuum grease to the recording chamber (˜1.0 ml volume). A 2-mm circle in the center of the Millipore paper allowed light from below to be projected on to the photoreceptors.
Patch pipettes were used to make small holes in the inner limiting membrane, and ganglion cells with large somata were targeted under visual control. Spiking was recorded with a cell-attached patch electrode (4-8MΩ) filled with superfusate. For whole-cell recordings, the patch electrode was filled with (in mM): 113 CsMeSO4, 1 MgSO4, 7.8×10^−3 CaCl2, 0.1 BABTA, 10 HEPES, 4 ATP-Na2, 0.5 GTP-Na3, 5 lidocaine N-ethyl bromide (QX314-BR), 7.5 neurobiotin chloride, pH 7.2. […] Two silver-chloride coated silver wires served as the ground and were positioned at opposite edges of the recording chamber each approximately 15 mm from the targeted cell. The retina was continuously perfused at 4 mL/min with Ames' (pH 7.4) at 36° C., equilibrated with 95% O2 and 5% CO2. Pharmacological agents were applied to the bath by switching a 3-way stopcock to a 200 mL reservoir of Ames' containing one or more of the following blockers: 50 μM 6-cyano-7-nitroquinoxaline-2,3-dione (CNQX), 100 μM cadmium chloride (CdCl2).
Pulse and sinusoidal stimuli were controlled by Multi-Channel Systems STG2004 hardware and software. Two silver-chloride coated silver wires served as the return; each was positioned approximately 8 mm from the targeted cell and approximately 12 mm from each other. The height of the stimulating electrode remained fixed at 25 μm above the inner limiting membrane. The stimulating electrode was placed either directly over the sodium-channel band on the proximal axon, or ˜1 mm lateral to the soma directly over the distal axon. Because of the use of patch clamp, spikes were clearly visible through the stimulus artifact. The efficacy of various stimulation waveforms (0.2-ms pulses and 5-Hz to 100-Hz sinusoids) was tested for the two different electrode positions.
Pulsatile stimuli were biphasic pulses (equal and opposite rectangular phases) delivered at 10 pulses per second (phase duration: 200 μsec; interphase delay: 10 ms; cathodic phase first). The interphase delay was long enough for the neural response to the cathodic pulse to be completed before the onset of the anodic phase. For each stimulus amplitude, 15-30 pulses were delivered and there was a delay of >5 sec between stimulation epochs. Pulses of this duration and over the range of stimulus amplitudes produced either a single spike or no spike. If a spike was elicited, it immediately followed the cathodal pulse. […]

[1] abbreviates: single blocker in bath: 50 μM CNQX or 100 μM CdCl2 alone.
Where [2] appears, read: single blocker: 50 μM CNQX (n=6) or 100 μM CdCl2 (n=4).

In the case of `[Cl][Cd][Cl]` [CdCl2, cadmium chloride], the “maximum number of elicited spikes in control versus with synaptic blocker” value is “largely clustered around the x-axis” (10-Hz stimulation); “mostly scattered between the line of unity slope and the x-axis” (25 Hz stimulation); “largely clustered around the line of unity slope” (100-Hz stimulation). For the same molecule, the “response to 10-Hz stimulation (spikes elicited)” value is “mostly eliminated” (100 μM CdCl2 added to 50 μM CNQX, n=2/2) and “completely eliminated; also recorded: greatly reduced” under setting [1]. The “stimulus threshold in blocker relative to control” value reads like this: (10 Hz stimulation) “increased significantly”; (25 Hz stimulation) “increased significantly”. For the same molecule, the “response to 25-Hz stimulation (spikes elicited)” value was “greatly reduced” (CNQX and CdCl2 both present (n=2)); “greatly reduced” under setting [2]. Besides, the “effect of the blockers on stimulus threshold” value (100-Hz stimulation) was “not significant”. The “synaptically mediated response of ganglion cells to stimulation” value (cadmium applied in addition to CNQX) is “completely abolish”.

Take `N#Cc1cc2c(cc1[N+](=O)[O-])=NC(=O)C(=O)N=2` [CNQX, 6-cyano-7-nitroquinoxaline-2,3-dione]: the “maximum number of elicited spikes in control versus with synaptic blocker” value is, setting by setting: (10-Hz stimulation) “largely clustered around the x-axis”; (25 Hz stimulation) “mostly scattered between the line of unity slope and the x-axis”; (100-Hz stimulation) “largely clustered around the line of unity slope”. The “response to 10-Hz stimulation (spikes elicited)” value under setting [1] was “greatly reduced; also recorded: completely eliminated”. Moreover, the “stimulus threshold in blocker relative to control” value runs as follows: (10 Hz stimulation) “increased significantly”; (25 Hz stimulation) “increased significantly”. Besides, under setting [2], the “response to 25-Hz stimulation (spikes elicited)” value is “greatly reduced; also recorded: blocks much of this response”. In addition, the “effect of the blockers on stimulus threshold” value (100-Hz stimulation) was “not significant”. Further, the “synaptically mediated response of ganglion cells to stimulation” value (CNQX applied) was “greatly reduced”.
